This experiment addresses T1, taspase1 (Homo sapiens, UniProt Q9H6P5).
T1 sequence (Q9H6P5 1-233 limits assumed): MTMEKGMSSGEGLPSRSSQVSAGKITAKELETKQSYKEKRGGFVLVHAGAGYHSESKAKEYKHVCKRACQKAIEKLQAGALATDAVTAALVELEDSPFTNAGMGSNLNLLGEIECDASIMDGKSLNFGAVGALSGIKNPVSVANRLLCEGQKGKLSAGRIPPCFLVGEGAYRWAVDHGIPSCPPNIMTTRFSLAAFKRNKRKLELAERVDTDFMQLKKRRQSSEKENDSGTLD
T1 sequence (Q9H6P5 234-420 limits assumed): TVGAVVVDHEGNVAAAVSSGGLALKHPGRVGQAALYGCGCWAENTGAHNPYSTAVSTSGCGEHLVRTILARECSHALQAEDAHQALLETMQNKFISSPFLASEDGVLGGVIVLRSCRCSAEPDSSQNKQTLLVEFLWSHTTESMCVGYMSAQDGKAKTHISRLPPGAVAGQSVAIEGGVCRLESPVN
The experiment in a line: Inhibition rates after different pre-incubation times. In kind it is biochemical. Conditions: different amounts of pre-incubation time.

In the case of Ac-Ile-Ser-Gln-Leu-Asp-vs [yzm18], the “time dependence of inhibition” value is listed as “inhibition was not time dependent”.

Source of the values: article PMC3513416 (Bioorganic & medicinal chemistry letters, 2009).
